Assay results from patent publication US10653676B2 (Dana-Farber Cancer Institute, Inc., priority 2010, dated 2020).

Tests used:
[1] = target: T1, UCH-L3 (Homo sapiens, UniProt P15374); assay: deubiquitinating enzyme assay with UCH-L3; format: biochemical; conditions: in vitro
T1 sequence (P15374 1-230): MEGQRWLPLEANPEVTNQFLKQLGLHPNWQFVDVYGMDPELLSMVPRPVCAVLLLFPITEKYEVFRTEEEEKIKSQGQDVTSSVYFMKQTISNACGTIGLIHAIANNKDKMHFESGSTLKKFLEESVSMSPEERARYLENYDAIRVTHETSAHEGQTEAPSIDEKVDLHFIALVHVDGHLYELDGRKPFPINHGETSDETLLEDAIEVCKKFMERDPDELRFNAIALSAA
Description: The in vitro enzymatic assays were performed using purified proteins from Sf9 cells as described previously (Cohn et al.). The assays using ubiquitin-AMC (Ub-7-amido-4-methylcoumarin; Boston Biochem) as substrate was carried out in a reaction buffer containing 20 mM HEPES-KOH (pH 7.8), 20 mM NaCl, 0.1 mg/ml ovalbumin, 0.5 mM EDTA and 10 mM dithiothreitol. The fluorescence was measured by FluoStar Galaxy Fluorometer (BMG Labtech). For the Ub-vinylsulfone (VS) assay, the proteins were incubated with Ub-VS at 0.5 μM final concentration for 1 h at 30° C., followed by the immunoblotting analysis.
To examine the specificity of C527 in USP1/UAF1 inhibition, its ability to inhibit other DUB enzymes in vitro was examined. […] Moreover, the active complex of USP12 contains an additional WD40 subunit (WDR20). […] UCH-L1 and UCH-L3 are members of a different subclass of deubiquitinating enzymes, referred to as the ubiquitin-carboxy terminal hydrolases (Mermerian A H, Case A, Stein R L, Cuny G D. Structure-activity relationship, kinetic mechanism, and selectivity for a new class of ubiquitin C-terminal hydrolase-L1 (UCH-L1) inhibitors. Bioorg Med Chem Lett. 2007; 17:3729-3732). […] Taken together, C527 is a pan-deubiquitinating enzyme inhibitor in vitro, though it has some specificity for the USP subfamily of DUBs, compared to the UCH subfamily.

[2] = test system: endogenous DUB enzyme complexes; assay: HA-Ub-VS labelling of other endogenous DUBs in HeLa cell extracts; format: biochemical, human; conditions: HeLa cell extracts pretreated 4 h (Ub-Ald 5 μM), then Ub-VS 40 min at 30° C.; FIG. 7
Description: FIG. 7 is a composite figure depicting preferential inhibition of the activity of native USP1/UAF1 by C527. HeLa cell extracts were incubated with ubiquitin-aldehyde (Ub-Ald, 5 μM) or C527 at indicated concentrations for 4 h, followed by the addition of 0.5 μM Ub-Vs for 40 min. The reaction was split into two aliquots and subjected to immunoblotting for HA or USP1, respectively.
The ability of C527 to inhibit the deubiquitinating activity of native USP1 complexes derived from human cells was determined next (FIG. 7). For this purpose, the HA-tagged ubiquitin-VS, an affinity reagent known to covalently modify and trap active DUB enzymes in cell extracts was used. Cell extracts prepared from HeLa cells were pretreated with increasing concentrations of C527 for 4 h, followed by the incubation with Ub-VS for 40 min at 30° C. The enzymatic activity of endogenous DUBs was indicated by the conjugation of Ub-VS, detected as HA-labeling (see FIG. 7, high molecular weight bands). […] Ub-VS conjugation was inhibited by ubiquitin-aldehyde (Ub-Ald), a non-specific inhibitor of DUBs (lane 3).

O=C1c2ccccc2C(=O)c2oc(-c3ccc(F)cc3)nc21 [Formula IV (527)]
inhibitory effect on UCH-L3 [1]: considerably less inhibitory effect
Ub-VS labeling of endogenous DUBs (HA-labeling) [2]: failed to inhibit
